Test results: USRE38425E1, “Semicarbazones having CNS activity and pharmaceutical preparations containing same” (University of Saskatchewan Technologies, Inc., priority 1995, dated 2004)
Values joined by “and” are separate entries in the source; they are usually repeats but may differ in a detail not shown here. Identical values can stand only once. Like-named read-outs stand apart in the source and are kept apart here.

Key:
kindled rat = kindled rat test (corneal kindled rat screen); assay type: in vivo, rats; settings: for protection in the corneal kindled rat screen: in vivo; for ED50: Rattus norvegicus, read-out: ED50 (dose required to reduce seizures from stage 5 to stage 3 or less)
Source text: Particularly preferred compounds according to the present invention are 4-(4′-fluorophenoxy)benzaldehyde semicarbazone and 4-(thiophenoxy)benzaldehyde semicarbazone. […] Incidentally, the kindled rat screen is described by R. J. Racine in “Modification of Seizure Activity by Electrical Stimulation. II. Motor Seizure”, Electroencephalogr.Clin.Neurophysiol., 1972, 32, 281-294, and by G. Skeen et al. In “Development of Kindled Seizures Following Electrical Stimulation via the Cornea”, Soc.Neurosci., 1990, 16(1), 307; the disclosures of which are incorporated herein by reference.
The kindled rat test was undertaken by reported procedures (as indicated above). Compound 4b was administered orally and the animals challenged with electrical stimuli 2h later. The ED50 is the dose required to reduce seizures from stage 5 to stage 3 or less and these stages are described as follows namely stage 1 is mouth and facial clonus, stage 2 is stage 1 plus head nodding, stage 3 is stage 2 plus forelimb clonus, stage 4 is stage 3 plus rearing and stage 5 is stage 4 plus repeated rearing and falling.

mice [1] = settings: intraperitoneal injection in mice; time t (h) per compound as in the table
Protocol: An initial anticonvulsant evaluation of the compounds prepared according to Example 1 was undertaken by administering the compounds by the intraperitoneal route to mice. Protection and/or neurotoxicity was noted 0.5 and 4 hours after administering doses of 30, 100 and 300 mg/kg of each semicarbazone to the animals.
Doses of 30, 100 and 300 mg/kg were injected by the intraperitoneal route into mice and evaluated in the MES, scPTZ and neurotoxicity screens one half and four hours after administration.

epileptic chicken = epileptic chicken model (intermittent photic stimulation); assay type: in vivo; settings: convulsions induced by intermittent photic stimulation
Source text: Two series of compounds were examined with the aim of observing whether oxygen or sulfur is a preferable spacer atom between the two aryl rings and also to compare the ED50 figures with those obtained in the rat oral and mouse intraperitoneal screens.

rats [2] = experiment: MES screen after oral administration to rats; settings: for ED50: Rattus norvegicus, po
Protocol: The majority of the compounds were examined for oral activity in rats. Initially doses of 50 mg/kg of the semicarbazones were administered.
Evaluation of most of the semicarbazones and analogs in the MES and neurotoxicity tests after oral administration to rats was performed.

mice [3] = test system: mice
mice [4] = experiment: MES screen after intraperitoneal injection in mice; assay type: in vivo; settings: time t (h) per compound as in the table; for ED50: Mus musculus, ip
rats [5] = experiment: neurotoxicity screen after oral administration to rats; settings: oral administration to rats; time t (h) per compound as in the table
Protocol: (§1) Initially doses of 50 mg/kg of the semicarbazones were administered.

rats [6] = experiment: scPTZ screen after oral administration to rats
Protocol: as §1

rats [7] = settings: rat, in vivo, po
Protocol: as §1

in vivo = settings: rat, po
Protocol: as §1

[8] = oral administration to rats, dose 12.5 mg/kg, 0.25 h
[9] = oral administration to rats, dose 12.5 mg/kg, 0.5 h
[10] = oral administration to rats, dose 12.5 mg/kg, 1 h
[11] = oral administration to rats, dose 12.5 mg/kg, 2 h
[12] = oral administration to rats, dose 12.5 mg/kg, 4 h
[13] = intraperitoneal injection in mice, time t (h) per compound as in the table
[14] = intraperitoneal injection in mice
[15] = doses indicated in Table 1, after 1 h
[16] = doses indicated in Table 1, after 2 h
[17] = doses indicated in Table 1, after 4 h
[18] = oral administration to rats, time t (h) per compound as in the table
[19] = doses indicated in Table 1, after 0.5 h
[20] = oral administration to rats, dose 50 mg/kg, 0.5 h
[21] = oral administration to rats, dose 50 mg/kg, 1 h
[22] = oral administration to rats, dose 50 mg/kg, 2 h
[23] = oral administration to rats, dose 50 mg/kg, 4 h
[24] = oral administration to rats, dose 50 mg/kg, 0.25 h
[25] = read-out: MES screen ED50 (mg/kg)
[26] = intraperitoneal injection in mice, read-out: MES screen ED50

NC(=O)NN=Cc1ccc(Oc2ccc(F)cc2)cc1 [4-(4′-fluorophenoxy)benzaldehyde semicarbazone]
protection in the corneal kindled rat screen (kindled rat): afford protection

NC(=O)NN=Cc1ccc(Sc2ccc(F)cc2)cc1 [Compound 16a]
acPTZ screen ED50 (mice [1]): >120 mg/kg
ED50 in the epileptic chicken model (epileptic chicken): 1.5 mg/kg
MES screen: number of rats out of 4 which were protected (rats [2]; [8]): 1
MES screen: number of rats out of 4 which were protected (rats [2]; [9]): 3
MES screen: number of rats out of 4 which were protected (rats [2]; [10]): 4
MES screen: number of rats out of 4 which were protected (rats [2]; [11]): 4
MES screen: number of rats out of 4 which were protected (rats [2]; [12]): 4
neurotoxicity screen TD50 (mice [3]; [13]): 88.00 mg/kg
MES screen ED50 (mice [4]; [14]): 12.37 mg/kg
neurotoxicity screen TD50 (rats [5]): 183.05 mg/kg

CCCCc1ccc(Oc2ccc(C=NNC(N)=O)cc2)cc1 [Compound 5r]
acPTZ screen ED50 (mice [1]): 86.93 mg/kg
number of rats protected in the scPTZ screen (rats [6]; [15]): 1/4
number of rats protected in the scPTZ screen (rats [6]; [16]): 2/4
number of rats protected in the scPTZ screen (rats [6]; [17]): 1/4
MES screen 0.5 h: number of rats out of 4 which were protected (rats [2]; [9]): 2
MES screen 1 h: number of rats out of 4 which were protected (rats [2]; [10]): 2
MES screen 2 h: number of rats out of 4 which were protected (rats [2]; [11]): 3
MES screen 4 h: number of rats out of 4 which were protected (rats [2]; [12]): 4
MES screen ED50 (rats [2]; [18]): 3.21 mg/kg
neurotoxicity screen TD50 (mice [3]; [13]): 131.27 mg/kg
MES screen ED50 (mice [4]; [14]): 13.36 mg/kg
neurotoxicity screen TD50 (rats [5]): >3.22 mg/kg

Cc1ccccc1Oc1ccc(C=NNC(N)=O)cc1 [Compound 5n]
number of rats protected in the scPTZ screen (rats [6]; [19]): 1/4
number of rats protected in the scPTZ screen (rats [6]; [15]): 1/4
number of rats protected in the scPTZ screen (rats [6]; [16]): 1/4
MES screen 0.5 h: number of rats out of 4 which were protected (rats [2]; [9]): 4
MES screen 1 h: number of rats out of 4 which were protected (rats [2]; [10]): 3
MES screen 2 h: number of rats out of 4 which were protected (rats [2]; [11]): 4
MES screen 4 h: number of rats out of 4 which were protected (rats [2]; [12]): 4
MES screen ED50 (rats [2]; [18]): 5.65 mg/kg
neurotoxicity screen TD50 (rats [5]): >500 mg/kg

NC(=O)NN=Cc1ccc(Sc2ccccc2)cc1 [Compound 15a]
acPTZ screen ED50 (mice [1]): >46 mg/kg
ED50 in the epileptic chicken model (epileptic chicken): 2.5 mg/kg
MES screen: number of rats out of 4 which were protected (rats [2]; [20]): 4
MES screen: number of rats out of 4 which were protected (rats [2]; [21]): 4
MES screen: number of rats out of 4 which were protected (rats [2]; [22]): 4
MES screen: number of rats out of 4 which were protected (rats [2]; [23]): 4
neurotoxicity screen TD50 (mice [3]; [13]): 181.00 mg/kg
MES screen ED50 (mice [4]; [14]): 15.62 mg/kg
neurotoxicity screen TD50 (rats [5]): >496 mg/kg

CCCC(CCC)C(=O)O [Valproic acid, reference compound]
acPTZ screen ED50 (mice [1]): 209 mg/kg
ED50 (rats [2]; read-out: MES screen ED50 (mg/kg), oral administration to rats, time t (h) per compound as in the table): 395 mg/kg
ED50 (kindled rat): 117 mg/kg
ED50 (mice [4]; read-out: MES screen ED50 (mg/kg), intraperitoneal injection in mice): 287 mg/kg
neurotoxicity screen TD50 (rats [7]): 859 mg/kg

NC(=O)NN=Cc1ccc(Oc2ccc(I)cc2)cc1 [Compound 4e]
number of rats protected in the scPTZ screen (rats [6]; [19]): 1/4
number of rats protected in the scPTZ screen (rats [6]; [15]): 1/4
number of rats protected in the scPTZ screen (rats [6]; [17]): 1/4
MES screen 0.25 h: number of rats out of 4 which were protected (rats [2]; [24]): 3
MES screen 0.5 h: number of rats out of 4 which were protected (rats [2]; [20]): 4
MES screen 1 h: number of rats out of 4 which were protected (rats [2]; [21]): 4
MES screen 2 h: number of rats out of 4 which were protected (rats [2]; [22]): 4
MES screen 4 h: number of rats out of 4 which were protected (rats [2]; [23]): 4

NC(=O)NN=Cc1ccc(Sc2ccc(Br)cc2)cc1 [Compound 16c]
acPTZ screen ED50 (mice [1]): >200 mg/kg
ED50 in the epileptic chicken model (epileptic chicken): 1.5 mg/kg
MES screen: number of rats out of 4 which were protected (rats [2]; [8]): 0
MES screen: number of rats out of 4 which were protected (rats [2]; [9]): 1
MES screen: number of rats out of 4 which were protected (rats [2]; [10]): 3
MES screen: number of rats out of 4 which were protected (rats [2]; [11]): 4
MES screen: number of rats out of 4 which were protected (rats [2]; [12]): 4
neurotoxicity screen TD50 (mice [3]; [13]): 122.57 mg/kg
MES screen ED50 (mice [4]; [14]): 24.37 mg/kg

NC(=O)NN=Cc1ccc(Sc2ccc(Cl)cc2)cc1 [Compound 16b]
acPTZ screen ED50 (mice [1]): >120 mg/kg
ED50 in the epileptic chicken model (epileptic chicken): 1.0 mg/kg
MES screen: number of rats out of 4 which were protected (rats [2]; [24]): 1
MES screen: number of rats out of 4 which were protected (rats [2]; [20]): 4
MES screen: number of rats out of 4 which were protected (rats [2]; [21]): 4
MES screen: number of rats out of 4 which were protected (rats [2]; [22]): 4
MES screen: number of rats out of 4 which were protected (rats [2]; [23]): 4
neurotoxicity screen TD50 (mice [3]; [13]): 53.18 mg/kg
MES screen ED50 (mice [4]; [14]): 16.22 mg/kg

NC(=O)NN=Cc1ccc(Sc2ccccc2)cc1 [4-(thiophenoxy)benzaldehyde semicarbazone]
protection in the corneal kindled rat screen (kindled rat): afford protection

O=C1NC(=O)C(c2ccccc2)(c2ccccc2)N1 [Phenytoin, reference compound]
acPTZ screen ED50 (mice [1]): >50 mg/kg
ED50 (rats [2]; [25]): 23.2 mg/kg
TD50 (in vivo): > 500 mg/kg
ED50 (kindled rat): > 100 mg/kg
neurotoxicity screen TD50 (mice [3]; [13]): 41.23 mg/kg and 42.8 mg/kg
toxicity screen 0.5 h: minimum dose whereby bioactivity was demonstrated in half or more of the mice (mice [3]; mouse, in vivo, 0.5 h): 100 mg/kg
toxicity screen: minimum dose whereby bioactivity was demonstrated in half or more of the mice (mice [3]; mouse, in vivo, 0.5 h): 100 mg/kg
toxicity screen 4 h: minimum dose whereby bioactivity was demonstrated in half or more of the mice (mice [3]; mouse, in vivo, 4 h): 100 mg/kg
toxicity screen: minimum dose whereby bioactivity was demonstrated in half or more of the mice (mice [3]; mouse, in vivo, 4 h): 100 mg/kg
ED50 (mice [4]; [26]): 6.32 mg/kg
MES screen ED50 (mice [4]; [14]): 6.48 mg/kg

NC(=O)N1c2ccccc2C=Cc2ccccc21 [Carbamazepine, reference compound]
acPTZ screen ED50 (mice [1]): >50 mg/kg
ED50 (rats [2]; [25]): 3.57 mg/kg
ED50 (kindled rat): 28.9 mg/kg
toxicity screen 0.5 h: minimum dose whereby bioactivity was demonstrated in half or more of the mice (mice [3]; mouse, in vivo, 0.5 h): 100 mg/kg
toxicity screen: minimum dose whereby bioactivity was demonstrated in half or more of the mice (mice [3]; mouse, in vivo, 0.5 h): 100 mg/kg
toxicity screen 4 h: minimum dose whereby bioactivity was demonstrated in half or more of the mice (mice [3]; mouse, in vivo, 4 h): 300 mg/kg
toxicity screen: minimum dose whereby bioactivity was demonstrated in half or more of the mice (mice [3]; mouse, in vivo, 4 h): 300 mg/kg
neurotoxicity screen TD50 (mice [3]; mouse, in vivo, ip): 47.8 mg/kg
ED50 (mice [4]; [26]): 9.85 mg/kg
neurotoxicity screen TD50 (rats [5]): 361 mg/kg
